Experimental data: patent publication US10472610B2, “Method for generating pancreatic bud cells and therapeutic agent for pancreatic disease containing pancreatic bud cells” (Kyoto University, priority 2014, dated 2019)

Assays:
[1] = test system: human ES cell line KhES3; conditions: added in Stage 3 on day 2 or after for 1-2 days
Experimental: In the figure, arrows indicate time periods when ALK5 inhibitor II was added to the medium. […] The expressions were measured by a flow cytometer. In the figure, numbers indicate the ratio of PDX1^+ and NKX6.1^+ cells contained in the culture.
The cells obtained in Stage 2 were dissociated into single cells with trypsin and seeded on a Low Attachment 96-well plate (Lipidure Coat, NOF) at a density of 3.0×10^3 to 3.0×10^4 cells/well. Improved MEM Zinc Option (15×10^4 cells/ml) containing 100 ng/ml of KGF, 100 ng/ml of Noggin, 50 ng/ml of EGF (R&D systems), 10 μM of Y-27632 and 1% B-27 was added to the plate, and the cells were further cultured for 4 to 20 days. During this time period, the medium was exchanged with fresh medium every 4 days. As a control, cells obtained in Stage 2 were dissociated into single cells with trypsin and seeded on a Matrigel coated 24 well plate (Greiner) at a density of 6.0×10^4 to 4.8×10^5 cells/cm^2 and cultured under adhesive conditions in the same medium for four days. […]
The cells obtained at four days after the start of Stage (S3d4) were treated with BD Cytofix/Cytoperm™ Kit, stained with an anti-PDX1 antibody (R&D systems) and an anti-NKX6.1 antibody (University of Iowa), and the ratio of PDX1^+ cells as well as the ratio of PDX1^+NKX6.1^+ cells were determined by using a flow cytometer.

[2] = test system: iPS cell line 585A1; assay: Modified adherent culture protocol, additives during Stage 3, flow cytometer or image analyzer; assay type: cell-based, human; conditions: for ratio of PDX1^+NKX6.1^+ cells / ratio of NKX6.1^+ cells: compound in Stage 3 medium, modified protocol, 4 days
Experimental: Cells of iPS cell line 585A1 were seeded on a Matrigel coated 24 well plate at a density of 2.0×10^5 cells/well, and the cells were cultured in RPMI 1640 Medium (Nacalai Tesque, Inc.) supplemented with 2% B-27 (Life Technologies), to which 100 ng/ml of activin A (R&D systems), 3 μM of CHIR99021 (Axon Medchem) and 10 μM of Y-27632 (Wako Pure Chemical Industries, Ltd.) were added, for one day. The medium was exchanged with RPMI 1640 Medium containing 100 ng/ml of activin A, 1 μM of CHIR99021 and 2% B-27 (Life Technologies), and the cells were cultured for two days. In addition, the medium was exchanged with RPMI 1640 Medium containing 100 ng/ml of activin A and 2% B-27 (Life Technologies), and the cells were cultured for one day.
The medium was exchanged with Improved MEM Zinc Option (Invitrogen) containing 50 ng/ml of KGF (R&D systems) and 1% B-27 (Life Technologies), and the cells were cultured for 3 or 4 days. Subsequently, the medium was exchanged with Improved MEM Zinc Option containing 50 ng/ml of KGF, 100 ng/ml of Noggin (Peprotech), 10 nM of TTNPB (Santa Cruz Biotechnology), 0.5 μM of 3-Keto-N-aminoethyl-N′-aminocaproyldihydrocinnamoyl Cyclopamine (KAAD-cyclopamine or K-CYC) (Toronto Research Chemicals) and 1% B-27 and the cells were cultured for 2 or 3 days.

[3] = test system: iPS cell line 585A1; assay: Adherent culture protocol, Y-27632 during Stage 3, flow cytometry of PDX1/NKX6.1; assay type: cell-based, human; conditions: four days
Experimental: Cells of iPS cell line 585A1 were seeded on a Matrigel coated 24 well plate at a density of 2.0×10^5 cells/well, and cultured in RPMI 1640 Medium (Nacalai Tesque, Inc.) supplemented with 2% B-27 (Life Technologies), 100 ng/ml of activin A (R&D systems), 3 μM of CHIR99021 (Axon Medchem) and 10 μM of Y-27632 (Wako Pure Chemical Industries, Ltd.) for one day. The medium was exchanged with RPMI 1640 Medium containing 100 ng/ml of activin A, 1 μM of CHIR99021 and 2% B-27 (Life Technologies), and the cells were cultured for two days. The medium was then exchanged with RPMI 1640 Medium containing 100 ng/ml of activin A and 2% B-27 (Life Technologies), and the cells were cultured for one day.
The medium of the culture obtained in Stage 1 was exchanged with Improved MEM Zinc Option (Invitrogen) containing 50 ng/ml of KGF (R&D systems) and 1% B-27 (Life Technologies) and the cells were cultured for three days. Subsequently, the medium was exchanged with Improved MEM Zinc Option containing 50 ng/ml of KGF, 100 ng/ml of Noggin (Peprotech), 10 nM of TTNPB (Santa Cruz Biotechnology), 0.5 μM of 3-Keto-N-aminoethyl-N′-aminocaproyldihydrocinnamoyl Cyclopamine (KAAD-cyclopamine or K-CYC) (Toronto Research Chemicals) and 1% B-27, and the cells were cultured for three days.

In the case of Cc1cccc(-c2n[nH]cc2-c2ccc3ncccc3n2)n1 [ALK5 inhibitor II, 2-[3-[6-methylpyridin-2-yl]-1H-pyrazol-4-yl]-1,5-naphthyridine], the “ratio of PDX1^+NKX6.1^+ cells” value [1] is reported as “increased”.
For Cc1ccc2c(c1)C(=O)C1(O)CCN(c3ccccc3)C1=N2 (centres unmarked) [Blebbistatin], the “concentration from which the ratio of PDX1^+NKX6.1^+ cells increased” value ([2]; Stage 3, modified protocol) was 5 µM, the “concentration up to which the effect on the ratio of PDX1^+NKX6.1^+ cells was high” value ([2]; Stage 3, modified protocol) was “up to 20 μM” and the “ratio of PDX1^+NKX6.1^+ cells” value [2] was “increased”.
For O=S(=O)(c1cccc2cnccc12)N1CCCNCC1 [Fasudil], the “concentration at which the effect on the ratio of PDX1^+NKX6.1^+ cells was highest” value ([2]; Stage 3, modified protocol) was 50 µM and the “ratio of PDX1^+NKX6.1^+ cells” value [2] was “increased in a concentration-dependent manner”.
CCn1c(-c2nonc2N)nc2cnc(Oc3cccc(NC(=O)c4ccc(OCCN5CCOCC5)cc4)c3)cc21 [GSK269962] was tested, and the “concentration at which the effect on the ratio of NKX6.1^+ cells was highest” value ([2]; Stage 3, modified protocol) was 1 µM and the “ratio of NKX6.1^+ cells” value [2] was “increased in a concentration-dependent manner”.
Cc1cncc2cccc(S(=O)(=O)N3CCCNC[C@@H]3C)c12 [H-1152] was tested, and the “concentration at which the effect on the ratio of NKX6.1^+ cells was highest” value ([2]; Stage 3, modified protocol) was 50 µM and the “ratio of NKX6.1^+ cells” value [2] was “increased in a concentration-dependent manner”.
For CN(C)CCOc1cc(-c2cn[nH]c2)ccc1NC(=O)C1COc2ccccc2O1 (centres unmarked) [SR3677], the “concentration at which the effect on the ratio of NKX6.1^+ cells was highest” value ([2]; Stage 3, modified protocol) was 5 µM and the “ratio of NKX6.1^+ cells” value [2] was “increased in a concentration-dependent manner”.
In the case of C[C@@H](N)[C@H]1CC[C@H](C(=O)Nc2ccncc2)CC1 [Y-27632], the “concentration at which the effect on the ratio of PDX1^+NKX6.1^+ cells was highest” value ([3]; Stage 3, adherent culture) is reported as 100 µM and the “ratio of PDX1^+NKX6.1^+ cells” value ([3]; compound in Stage 3 medium, adherent culture) is reported as “increased in a concentration-dependent manner”.
